The numbers were not newly measured in US20250129016A1, “[…] FOR RADI[…] ARENES AND USE THEREOF” (THE UNIVERSITY OF NORTH CAROLINA AT CHAPEL HILL, priority 2023, published 2025), which cites them from elsewhere.

The conditions of this data set: previously reported.

As to `COc1cc2c(c(OC)c1OC)-c1ccc(OC)c(=O)cc1[C@@H](NC(C)=O)CC2` [39a, Colchicine], the route of excretion entry is “excreted primarily through the biliary system, intestines, and kidneys”.
